Data on 15 compounds can be found in patent publication US20100130432A1, “Non-Natural Amino Acids and Neurotensin Analogues Thereof” (priority 2005, published 2010).

Counter-ions that a name gives are not always drawn. Marks after values point to notes of the source that are not given here. Non-standard residues stand in square brackets, D forms with d. Residues, ends and D or L forms follow the SMILES beside them. No end group written: not given here. *: point of attachment. X5 = [N-]=[N+]=N[C@@H](CCCCCN)C(=O)*; X2 = C[C@@H](CCC[N+](C)(C)C)C(=O)*; Tle = CC(C)(C)[C@H](N)C(=O)O; hLys = NCCCCC[C@H](N)C(=O)O; X1 = C[C@@H](CCCCCN)C(=O)*; Orn = NCCC[C@H](N)C(=O)O

The target of one series is NTR-1 (Homo sapiens, UniProt P30989). Nature of the series: Competitive NTR binding versus radiolabeled NT[8-13].
For a further series, the target named is NTR-2 (Homo sapiens, UniProt O95665). The series is described as above.
Series [1] concerns rats. Nature of the series: Clinical observation after high IV or PO dose. The class given is in vivo, rat. How it is done:
During the 2 and 24 hour post-dosing clinical observation periods, measurements of core body temperatures were taken.

Series [2] in a line: Pharmacokinetics of ABS201 in blood/plasma (LC/MS/MS). The following applies: SD, rat, in vivo, iv, 100 mg/kg. The text has this: (§1) At selected time points, blood was removed or brain harvested and the concentration of the peptide analog determined using LC/MS/MS.
(§2) These samples were then used for the determination of plasma and brain drug levels by LC/MS/MS for estimating BBB penetration and pharmacokinetic parameters.

Series [3] can be described thus: Brain distribution of ABS201 (LC/MS/MS).
From the text: as §1, §2

Series [4] is described as follows: Pharmacokinetics of ABS212 in plasma (LC/MS/MS). Type of series: in vivo, rat. The text has this:
These samples were used for the determination of plasma parent drug concentrations by LC/MS/MS for estimating pharmacokinetic parameters and oral bioavailability.

The test system of series [5] is rats. Nature of the series: Catalepsy, horizontal bar test. The following applies: IP 1 mg/kg, cut-off 30 sec.
Protocol: (§3) Cataleptic Analysis. […] To circumvent these potential confounding factors, tests are performed on an animal only once in a quiet, controlled environment.
(§4) Catalepsy Assessment. […] Rats were given an IP injection of peptide (5 mg/Kg), saline, or haloperidol (1 mg/kg). After 3 hours, catalepsy was measured using the horizontal bar test. Briefly, the front paws were placed directly on a horizontal bar 5 mm in diameter placed 7.5 cm above the cage floor. The rat was held in this position for 3 sec and then released. The time from release until the paws return to the cage floor was measured and recorded. A cut-off time of 30 sec was observed; this indicated a fully cataleptic animal as cataleptic animals are frozen to the bar. […] Measures were repeated every 30 min for 4 hr. Data are means±SEM (p<0.01).
Series [6] has as its system rats. The series can be described thus: Tail flick assay. Type of series: in vivo, rat. The following applies: ABS212 10 mg/kg, Morphine 5 mg/kg. The protocol: The Tail Flick Assay. Each of 6 rats per experiment were placed in a Plexiglas restraint box. A standard laboratory hot water bath was maintained at 49° C. The distal 3 cm of the rat's tail was submerged into the water, and the time from insertion to tail flick or removal of tail from the water was recorded. Animals are removed immediate4ly at the cutoff latency of 10 seconds. MPEs were calculated, with a MPE of 100% corresponding to the rat's tail remaining in the water bath for 10 seconds. This was repeated 3 times. The tail was dried and allowed to rest for 20 seconds between trials. The rat was then given the appropriate amount of peptide and the experiment repeated at 30 and 60 minutes. Treatment conditions were distributed over the study in a counterbalanced design to control for such factors as calendar period and order of dosing. N=6 or greater for all experiments.

The subject of series [7] is rats. The series can be described thus: Formalin assay. The class given is in vivo, rat. The following applies: ABS212 10 mg/kg, Morphine 5 mg/kg.
Protocol: Formalin Assay. […] Animals were scored every minute on the following scale: 0=forepaw flat on floor, 1=forepaw just touching floor, 2=forepaw held up off of floor, and 3=forepaw licked or bitten. […] The animals were immediately be placed into the observation cages, and their behavior recorded over the following 30 minutes. After each experiment, rats were euthanized with CO2 followed by cervical dislocation. An average Pain Rating over time versus the baseline and formalin-only controls for each peptide tested were plotted, and statistical analysis were performed using a one-way analysis of variance (ANOVA). Differences were considered statistically significant at the 5% confidence interval. N=6 or greater for all experiments.
Series [8] relates to rats. Nature of the series: Induced hypothermia (rectal temperature) after IP or oral administration. As to conditions: IP 5 mg/kg, Table 5.
From the text: Hypothermia as a Preliminary Screen of CNS Activity.
Animal Restraint. Rats were restrained in Plas-Labs® plastic cages fitted with wooden dowels to restrict movement. Rectal temperature probes (Physitemp®, RET-2, Clifton, N.J.), lubricated with mineral oil, were inserted into the rectum of each animal. Probes were connected to a microprobe thermometer (Physitemp®, BAT-12) in conjunction with a thermocouple selector (Physitemp®, SWT-5). Rats were allowed to acclimate to the cages for 1 hr prior to IP injection.
Peptide Preparation. […] For oral administration, the test article was administered directly into the animals' stomach by gavaging. Controls involved the administration of 0.9% NaCl. Thus, peptides were dissolved in saline, and following the equilibration period, rats were given an IP injection of peptide (5 mg/kg) or saline (1 mL/kg). […]
Hypothermia. […] For each rat, a thermistor probe was placed 4.5 cm into the rectum; baseline temperatures were recorded for 1 hr to allow habituation to the cages prior to injection of compound. […]
The former activity is most easily monitored by measuring the extent of induced hypothermia (core body temperature loss), which is a measure of NTR-1 binding and agonism and thus antipsychotic activity. Hypothermia is followed routinely over time through insertion of a thermometer probe hooked up to a digital readout box into the anus of the rats.
Series [9] concerns rats. The following applies: rat, in vivo.
Protocol: as §3, §4
In series [10] the test system is rats. Nature of the series: d-Amphetamine induced hyperlocomotion / locomotor activity chambers. Type of series: in vivo, rat. The following applies: rat, in vivo. The text has this: Sound- and light-attenuated locomotor cages are used to measure the ability of potential candidates to decrease d-amphetamine-induced hyperactivity.
d-Amphetamine induced hyperlocomotion. Experimentally I male Sprague-Dawley rats were housed as described above. Rats were handled for three days prior to testing to minimize experimenter induced hyperlocomotion on test day. For experiments, sound- and light-attenuated automated photocell beam activity chambers (AccuScan Instruments, Inc., Columbus, Ohio) were used to measure locomotion. Cages were connected to a VersaMax Analyzer (AccuScan) in conjunction with an IBM computer using VersaMax 1.80-0146 software (AccuScan) to record vertical and horizontal activity. Total activity values recorded were the sum of vertical and horizontal activity. […]
Rats were placed in the activity chambers for 30 minutes to habituate and establish baseline activity levels. Then, rats were removed and given an IP or oral dose of peptide (N=7) or saline (N=8) and returned to the chamber to establish the peptide's effect on spontaneous activity levels. About 30 minutes after administration, rats were removed and given an IP injection of d-amphetamine (1 mg/kg) or vehicle and returned to the chamber for a further 1 hr to assess the effect of the peptide on induced hyperlocomotion.
Chronic Testing Protocols.
Separate two-factor ANOVAs for DOSE X TIME were performed for each different time-phase of the assay. Phases for the IP dosing and oral dosing experiments consisted of habituation (time points 10-60), drug (time points 70-120), and amphetamine (time points 130-240).

Series [11] deals with rats. The series can be described thus: Hotplate assay. The following applies: for MPE (I.P.) / Tmax (I.P.) of % MPE / MPE (oral) / Tmax (Oral) of % MPE: hotplate; for MPE (I.P.) / Tmax (I.P.) of % MPE: IP at 10 mg/kg; for MPE (oral) / Tmax (Oral) of % MPE: orally at 20 mg/kg. Type of series: in vivo, rat. The source says:
Animals. Experimentally naïve male Sprague-Dawley rats from Charles River Laboratories, Raleigh, N.C. (230-260 g) or Harlan, Prattville Ala. (240-280 g), were maintained 4 per cage in animal quarters on a regular light/dark cycle (lights on 0600-1800) with ad libitum food and water for approximately 1 week before the experiment. The range of body weights on the 2 days of testing was 230-260 grams. The experiment was done on one day, with animals allowed to recover for three days before experiments are repeated.
Peptide Preparation. Test articles are prepared at the desired concentration in saline for either IP injection or gavage administration with N=6 for each dose and vehicle. Morphine (5 mg/kg) is used as a control for certain protocols. […] Apomorphine HCl (Sigma-Aldrich, St. Louis, Mo.) was dissolved in distilled water at a concentration of 5 mg/mL within 40 minutes of administration for injection at 1 mL/kg S.C. to give a dose of 5 mg/kg. When complete ED50s are determined, dosing range of the peptide will be 10, 3, 1, 0.3, 0.1 of the estimated ED50, covering two log orders of range.
The Hotplate Assay. The hotplate assay, a standard rat model for […] pain (see Le Bars et al., Pharmacol. Rev. 53: 597-652 (2001) and Chapman et al., Pain 22:1-31 (2002)), was performed as follows. A hotplate maintained at 52° C. to 53° C. was enclosed on four sides in a plexiglass chamber that extended 6 in. above the plate. Animals were placed on the plate, and the latency between the time a rat was placed on the surface and when it lifts or licks a back paw (indicative of pain sensation) was determined. Animals are removed immediately at the cutoff latency of 30 seconds. Assays are scored as the percent of maximal possible effect (% MPE) defined as 100%, which corresponds to the rats remaining on the hotplate for 30 seconds without responding. Thus, % MPE are calculated using the following equation: % MPE=[(post-drug latency−pre-drug latency)/(cut-off pre-drug latency)]×100%. N=6 or greater for all experiments.
Tmax indicates the time after dosing in which a maximum response was observed.

Sequence of NTR-1 (P30989 whole entry, species assumed): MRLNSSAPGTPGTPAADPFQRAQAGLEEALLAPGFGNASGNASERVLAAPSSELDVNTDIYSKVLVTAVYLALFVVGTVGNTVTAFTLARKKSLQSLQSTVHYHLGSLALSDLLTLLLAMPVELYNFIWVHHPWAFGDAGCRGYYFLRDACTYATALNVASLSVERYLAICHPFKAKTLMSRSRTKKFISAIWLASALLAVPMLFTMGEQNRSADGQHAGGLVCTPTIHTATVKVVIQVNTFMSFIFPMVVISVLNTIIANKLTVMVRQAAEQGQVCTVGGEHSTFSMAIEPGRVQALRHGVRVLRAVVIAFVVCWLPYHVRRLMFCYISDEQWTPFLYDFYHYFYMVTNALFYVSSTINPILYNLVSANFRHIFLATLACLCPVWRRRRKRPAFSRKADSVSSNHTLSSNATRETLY
Sequence of NTR-2 (O95665 whole entry, species assumed): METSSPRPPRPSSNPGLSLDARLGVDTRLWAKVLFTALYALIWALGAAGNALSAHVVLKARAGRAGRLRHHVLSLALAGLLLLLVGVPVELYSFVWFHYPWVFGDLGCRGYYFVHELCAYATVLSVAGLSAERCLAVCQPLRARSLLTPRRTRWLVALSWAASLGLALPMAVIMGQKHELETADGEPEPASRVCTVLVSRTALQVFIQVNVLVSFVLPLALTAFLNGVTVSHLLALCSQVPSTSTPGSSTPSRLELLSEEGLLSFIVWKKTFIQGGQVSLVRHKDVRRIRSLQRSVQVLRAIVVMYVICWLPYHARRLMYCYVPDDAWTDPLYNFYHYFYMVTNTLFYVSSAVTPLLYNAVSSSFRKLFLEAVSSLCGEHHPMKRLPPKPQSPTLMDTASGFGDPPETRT

For orientation: IC50 means the concentration that inhibits the measured activity by half. Read a low IC50 as greater potency. Take `CC(C)C[C@H](NC(=O)[C@@H](NC(=O)[C@H](Cc1ccc(O)cc1)NC(=O)[C@@H]1CCCN1C(=O)[C@H](CCCNC(=N)N)NC(=O)[C@H](CCCCCN)N=[N+]=[N-])C(C)(C)C)C(=O)O` [ABS13, N3-L-homolysine-Arg-Pro-Tyr-tertLeu-Leu-COOH] (X5-RPY[Tle]L-OH): the 50% inhibitory concentration (IC50) on NTR-1 was determined as 5.7 ± 0.37 nM; at NTR-2 it was 11.1 ± 0.1 nM.
For `CC(C)C[C@H](NC(=O)[C@@H](NC(=O)[C@H](Cc1ccc(O)cc1)NC(=O)[C@@H]1CCCN1C(=O)[C@H](CCCNC(=N)N)NC(=O)[C@@H](C)CCCCCN)C(C)(C)C)C(=O)O` [ABS201 HCl] (X1-RPY[Tle]L-OH), in the series on rats [1] (IV 50 mg/kg), the “clinical observation 24 hour post-dosing” value was “grossly normal; hypothermia was absent”, the “clinical observation immediately after dosing” value is given as “obviously sedated” and the “clinical observation two hour post-dosing” value was “marked hypothermia was present”. Further, the clinical observation result in the series with rats [1] (PO 250 mg/kg) is on record as “grossly normal at all time points”.
Broadly, the Vd is the apparent volume that relates the amount in the body to the concentration in plasma or blood. Lower therefore signals confinement near the circulation. As usually defined, the clearance is the volume of plasma or blood freed of the substance per unit of time. High values mean a high capacity for elimination, low ones a low capacity for elimination. By Cmax is commonly meant the maximum level reached in the sampled fluid or tissue. The half-life is how long it takes for the measured level to halve. A low value points to rapid decline. Regarding `CC(C)C[C@H](NC(=O)[C@@H](NC(=O)[C@H](Cc1ccc(O)cc1)NC(=O)[C@@H]1CCCN1C(=O)[C@H](CCCNC(=N)N)NC(=O)[C@@H](C)CCCCCN)C(C)(C)C)C(=O)O` [ABS201.2HCl] (X1-RPY[Tle]L-OH), in series [2], the Vd is 16.1 L/kg and the clearance was 380 mL/min/kg. Besides, the AUC0-t in brain in series [3] (15 min intravenous infusion 100 mg/kg) turned out to be 60.96 ng·h/g. In series [3] (SD, rat, brain, iv, 100 mg/kg), this compound gave a Cmax of 32.9 ng/g and a half-life of 4.85 h.
In the case of `CC(C)C[C@H](NC(=O)[C@@H](NC(=O)[C@H](Cc1ccc(O)cc1)NC(=O)[C@@H]1CCCN1C(=O)[C@H](CCCNC(=N)N)NC(=O)[C@@H](C)CCC[N+](C)(C)C)C(C)(C)C)C(=O)O` [ABS-212.2HCL] (X2-RPY[Tle]L-OH), the results for the “clearance as % of rat hepatic blood flow” value in series [4] (IV bolus 1 mg/kg), in [4] (IV bolus 5 mg/kg) and in series [4] (IV bolus […]) were 32.33%, 12.08% and 12.08%, respectively.
Consider `O=C(CCCN1CCC(O)(c2ccc(Cl)cc2)CC1)c1ccc(F)cc1` [Haloperidol, reference compound], for which the duration of catalepsy entry with rats [5] was “greater than 30 sec”.
Regarding `CN1CC[C@]23c4c5ccc(O)c4O[C@H]2[C@@H](O)C=C[C@H]3[C@H]1C5` [Morphine, reference compound], in the series on rats [6], the “MPE (0 min)” value is on record as 0.03 +/− 0.05, the “MPE (30 min)” value is 63.7 +/− 41.9 and the “MPE (60 min)” value was 67.5 +/− 25.8. The “analgesic effect over the time course” value in the series on rats [7] is “loses activity after 30 minutes”.
On to `CC[C@H](C)[C@H](NC(=O)[C@H](Cc1ccc(O)cc1)NC(=O)[C@@H]1CCCN1C(=O)[C@H](CCCNC(=N)N)NC(=O)[C@@H](N)CCCNC(=N)N)C(=O)N[C@@H](CC(C)C)C(=O)O` [NT(8-13), NH2-Arg-Arg-Pro-Tyr-Ile-Leu-COOH, reference compound], for which, in the series with rats [8], the “tmax (min) Time to maximal temperature decrease” value was 90 min and the “Δ in BT (° C.) Decrease in body temperature measured at tmax” value is reported as −0.45 ± 0.17^d ° C. Besides, the catalepsy entry in the series with rats [9] was “No”. In the series on rats [10], the “Hyperlocomotion Inhibition (routes of administration)” value is “CNS administration” and the “Inhibits locomotor activity (routes of administration)” value is reported as “CNS administration”.
Regarding Arg-Arg-Pro-Tyr-t-Leu-Leu [ABS213], in the series on rats [11], the “MPE (I.P.)” value was determined as 48% and the “Tmax (I.P.) of % MPE” value is recorded as 30.
On the same counts, the results for Arg-Arg-Pro-Tyr-tLeu-Leu [ABS237] are 50% and 30.
In the case of Boc-Arg-Pro-Tyr-t-Leu-Leu [ABS700], in the series on rats [11], the “MPE (I.P.)” value stood at 51% and the “Tmax (I.P.) of % MPE” value is 90.
For KRPY[Tle]L [ABS229], in the series with rats [11], the “MPE (I.P.)” value was 48% and the “Tmax (I.P.) of % MPE” value was 60.
As for Lys-Arg-Pro-Tyr-t-Leu-Leu [ABS205], in the series on rats [11] (gavage 20 mg/kg), the “analgesic effect relative to ABS212” value is given as “as much or more active than ABS212”. For the same compound, in the series on rats [11], the “MPE (I.P.)” value amounted to 86%, the “Tmax (I.P.) of % MPE” value is listed as 15-30, the “MPE (oral)” value turned out to be 66% and the “Tmax (Oral) of % MPE” value was determined as 30.
As for Orn-Arg-Pro-Tyr-t-Leu-Leu [ABS209], in the series on rats [11], the “MPE (I.P.)” value is given as 89% and the “Tmax (I.P.) of % MPE” value came out at 60.
Regarding [Orn]RPY[Tle]L [ABS233], in the series on rats [11], the “MPE (I.P.)” value was found to be 51% and the “Tmax (I.P.) of % MPE” value is recorded as 45.
Take [hLys]RPY[Tle]L [ABS225]: in the series with rats [11], the “MPE (I.P.)” value was determined as 100%, the “Tmax (I.P.) of % MPE” value is on record as 15-45, the “MPE (oral)” value stood at 38% and the “Tmax (Oral) of % MPE” value is 30.
